This is an account of results in patent EP0261693A1, “Treated lipid regulator” (WARNER-LAMBERT COMPANY, priority 1986, dated 1988).

Converted amounts (≈) assume the structure as drawn. Like-named read-outs stand apart in the source and are kept apart here.

This series in a line: Concentration (solubility) of gemfibrozil in buffer, from absorbance at 280 nm. The following applies: aqueous buffer, excess gemfibrozil agitated overnight at room temperature, filtered, read-out: concentration of gemfibrozil in each buffer. The format is physicochemical. As to the method: Gemfibrozil solutions were prepared in 0.05 M acetate buffer, pH 4.5, and 0.05 M phosphate buffer, pH 6.0 and 7.5 as follows: • Gemfibrozil solutions were prepared by adding an excess of gemfibrozil to the desired volume of buffer and agitating overnight on a shaker at room temperature. The resulting suspension was vacuum filtered. Gemfibrozil concentration was determined from absorbance at 280 nm, using [formula]
Ultraviolet absorbance measurements were obtained on a Beckman DU-7 spectrophotometer.
The concentration of gemfibrozil in each buffer, determined from absorbance at 280 nm was: pH 4.5, 0.014 mg/ml; pH 6.0, 0.150 mg/ml; pH 7.5, 1.711 mg/ml. Cholestyramine (10 mg) was added to 20 ml of each gemfibrozil solution and the mixtures were agitated for 2 hours. The mixtures were filtered and the concentration of unboud gemfibrozil was determined.

Consider `Cc1ccc(C)c(OCCCC(C)(C)C(=O)O)c1` [gemfibrozil], for which the solubility thermodynamic runs as follows: (0.05 M acetate buffer, pH 4.5) 14 µg/mL (≈ 55.9 µM); (0.05 M phosphate buffer, pH 6.0) 150 µg/mL (≈ 599 µM); (0.05 M phosphate buffer, pH 7.5) 1710 µg/mL (≈ 6830 µM).
